One assay concerns sodium channel site 2 binding site (neuronal voltage-gated sodium channel). Kind of assay: [3H]-BTX-B binding. Also on record: species or system rat. The note with it: 37 vs 39 (83% vs 16%) at 40 μM.
Regarding `CCCCCCCC(O)(C(N)=O)c1cc(C)c(NC(=O)CN(CC)CC)c(C)c1` (stereo not drawn) [Compound 37, 2-[4-(2-Diethylamino-acetylamino)-3,5-dimethylphenyl]-2-hydroxy-nonanoic acid amide], the “increase in inhibition on heptyl for phenyl substitution at R1” value is recorded as “greater than 5 fold”.

The same assay, now with this note: read-out: observed (actual) IC50, [3H]-BTX.
`CCCCCCCC(O)(C(N)=O)c1cc(C)c(NC(=O)CN(CC)CC)c(C)c1` (stereo not drawn) [Compound 37, 2-[4-(2-Diethylamino-acetylamino)-3,5-dimethylphenyl]-2-hydroxy-nonanoic acid amide]: the IC50 is 6 µM.

For `CCN(CC)CC(=O)Nc1ccc(C2(c3ccccc3)NC(=O)NC2=O)cc1` (stereo not drawn) [Compound 41, 2-Diethylamino-N-[4-(2,5-dioxo-4-phenyl-imidazolidin-4-yl)-phenyl]-acetamide], the IC50 is about 39.8 µM.

For the compound `CCN(CC)CC(=O)Nc1c(C)cc(C2(c3ccccc3)NC(=O)NC2=O)cc1C` (stereo not drawn) [Compound 42, 2-Diethylamino-N-[4-(2,5-dioxo-4-phenyl-imidazolidin-4-yl)-2,6-dimethyl-phenyl]-acetamide], the IC50 was about 39.8 µM.

In the case of `CCCCCCCC1(c2cc(C)c(NC(=O)CN(CC)CC)c(C)c2)NC(=O)NC1=O` (stereo not drawn) [Compound 44, 2-Diethylamino-N-[4-(4-heptyl-2,5-dioxo-imidazolidin-4-yl)-2,6-dimethyl-phenyl]-acetamide], the IC50 is 13.5 µM.

The assay is the same for the next values; noted with them: test set; −log IC50 (IC50 in μM).
Take `CCCCCCCC(O)(C(N)=O)c1cc(C)c(NC(=O)CN(CC)CC)c(C)c1` (stereo not drawn) [Compound 37, 2-[4-(2-Diethylamino-acetylamino)-3,5-dimethylphenyl]-2-hydroxy-nonanoic acid amide]: the “−pIC50 Obsd” value is recorded as -0.78.

Take `CCN(CC)CC(=O)Nc1ccc(C2(c3ccccc3)NC(=O)NC2=O)cc1` (stereo not drawn) [Compound 41, 2-Diethylamino-N-[4-(2,5-dioxo-4-phenyl-imidazolidin-4-yl)-phenyl]-acetamide]: the “−pIC50 Obsd” value was -1.60.

Turning to `CCN(CC)CC(=O)Nc1c(C)cc(C2(c3ccccc3)NC(=O)NC2=O)cc1C` (stereo not drawn) [Compound 42, 2-Diethylamino-N-[4-(2,5-dioxo-4-phenyl-imidazolidin-4-yl)-2,6-dimethyl-phenyl]-acetamide], the “−pIC50 Obsd” value is recorded as -1.60.

Turning to `CCCCCCCC1(c2cc(C)c(NC(=O)CN(CC)CC)c(C)c2)NC(=O)NC1=O` (stereo not drawn) [Compound 44, 2-Diethylamino-N-[4-(4-heptyl-2,5-dioxo-imidazolidin-4-yl)-2,6-dimethyl-phenyl]-acetamide], the “−pIC50 Obsd” value was -1.13.

For the next assay, the target named is human Nav1.2 (Homo sapiens, UniProt Q99250).
Chain of human Nav1.2 (Q99250 whole entry): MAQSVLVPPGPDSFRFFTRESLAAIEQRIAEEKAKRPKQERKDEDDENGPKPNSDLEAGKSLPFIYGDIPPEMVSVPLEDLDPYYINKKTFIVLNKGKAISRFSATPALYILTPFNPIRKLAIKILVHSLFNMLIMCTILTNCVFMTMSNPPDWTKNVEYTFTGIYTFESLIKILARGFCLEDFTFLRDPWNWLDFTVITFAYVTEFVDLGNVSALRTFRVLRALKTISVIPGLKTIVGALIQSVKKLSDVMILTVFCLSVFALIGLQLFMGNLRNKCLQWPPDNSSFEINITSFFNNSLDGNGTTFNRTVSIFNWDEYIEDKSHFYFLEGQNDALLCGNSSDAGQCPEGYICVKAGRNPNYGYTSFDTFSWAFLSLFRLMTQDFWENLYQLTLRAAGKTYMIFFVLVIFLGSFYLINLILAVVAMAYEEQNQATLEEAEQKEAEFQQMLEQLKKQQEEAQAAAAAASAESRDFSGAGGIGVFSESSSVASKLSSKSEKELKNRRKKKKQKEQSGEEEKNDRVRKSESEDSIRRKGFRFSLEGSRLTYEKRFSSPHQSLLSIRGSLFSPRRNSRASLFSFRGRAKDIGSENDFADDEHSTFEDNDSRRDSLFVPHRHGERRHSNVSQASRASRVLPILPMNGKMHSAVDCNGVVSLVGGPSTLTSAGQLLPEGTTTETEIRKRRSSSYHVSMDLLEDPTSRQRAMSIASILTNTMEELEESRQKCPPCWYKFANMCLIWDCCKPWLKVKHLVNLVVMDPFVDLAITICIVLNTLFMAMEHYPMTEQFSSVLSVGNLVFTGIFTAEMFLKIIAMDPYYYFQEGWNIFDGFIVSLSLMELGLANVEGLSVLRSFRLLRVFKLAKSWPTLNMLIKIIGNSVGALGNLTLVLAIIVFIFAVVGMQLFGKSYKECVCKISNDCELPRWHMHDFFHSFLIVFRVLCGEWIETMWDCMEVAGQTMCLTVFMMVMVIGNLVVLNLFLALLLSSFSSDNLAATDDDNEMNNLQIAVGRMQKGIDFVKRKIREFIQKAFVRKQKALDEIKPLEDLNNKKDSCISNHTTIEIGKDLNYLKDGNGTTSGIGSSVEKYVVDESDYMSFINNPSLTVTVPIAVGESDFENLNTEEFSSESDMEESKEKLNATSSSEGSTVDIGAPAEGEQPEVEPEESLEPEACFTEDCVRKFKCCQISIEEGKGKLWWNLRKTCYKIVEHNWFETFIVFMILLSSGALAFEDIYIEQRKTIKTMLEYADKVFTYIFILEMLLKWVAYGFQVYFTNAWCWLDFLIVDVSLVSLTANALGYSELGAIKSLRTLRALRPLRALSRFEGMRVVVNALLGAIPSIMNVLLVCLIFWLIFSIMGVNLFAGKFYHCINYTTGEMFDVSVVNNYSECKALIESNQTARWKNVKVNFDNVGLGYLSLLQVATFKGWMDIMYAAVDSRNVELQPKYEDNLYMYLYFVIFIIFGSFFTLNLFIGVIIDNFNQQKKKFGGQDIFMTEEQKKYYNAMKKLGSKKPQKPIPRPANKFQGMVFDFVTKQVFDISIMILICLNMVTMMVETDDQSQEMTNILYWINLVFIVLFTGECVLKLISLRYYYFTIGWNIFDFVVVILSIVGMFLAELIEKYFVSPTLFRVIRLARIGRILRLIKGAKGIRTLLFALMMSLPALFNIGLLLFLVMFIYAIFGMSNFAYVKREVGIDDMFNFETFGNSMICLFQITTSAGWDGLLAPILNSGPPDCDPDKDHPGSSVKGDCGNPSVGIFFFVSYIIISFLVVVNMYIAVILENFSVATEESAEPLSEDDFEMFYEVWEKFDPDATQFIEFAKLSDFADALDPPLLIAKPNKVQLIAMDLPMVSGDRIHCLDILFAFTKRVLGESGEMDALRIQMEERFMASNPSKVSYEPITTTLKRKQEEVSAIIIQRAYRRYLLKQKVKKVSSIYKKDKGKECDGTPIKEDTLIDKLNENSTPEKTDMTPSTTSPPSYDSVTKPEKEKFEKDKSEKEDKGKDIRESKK
Test: not given
The format is cell-based. The note with it: HEK cells.
Take `CCCCCCCC(O)(C(N)=O)c1cc(C)c(NC(=O)CN(CC)CC)c(C)c1` (stereo not drawn) [Compound 37, 2-[4-(2-Diethylamino-acetylamino)-3,5-dimethylphenyl]-2-hydroxy-nonanoic acid amide]: the “reversibility of block on washout” value is “partially reversible upon washout”.

For another assay, the target named is sodium channel site 2 binding site (neuronal voltage-gated sodium channel).
Test: not given
As to conditions: −pIC50 = −log IC50 (IC50 in μM); training set; ref literature reference; cited from earlier work.
On to `CCCC1(c2ccccc2)NC(=O)NC1=O` (stereo not drawn) [Compound 1], for which the “Final model, −pIC50 Obsd” value is recorded as −2.21.

With `CCCCC1(c2ccccc2)NC(=O)NC1=O` (stereo not drawn) [Compound 2], the “Final model, −pIC50 Obsd” value is −2.01.

With `CCCCCC1(c2ccccc2)NC(=O)N(C)C1=O` (stereo not drawn) [Compound 4], the “Final model, −pIC50 Obsd” value is listed as −1.59.

Consider `CCCCCCC1(c2ccccc2)NC(=O)NC1=O` (stereo not drawn) [Compound 5], for which the “Final model, −pIC50 Obsd” value is recorded as −1.11.

For the compound `CCCCCCCC1(c2ccccc2)NC(=O)NC1=O` (stereo not drawn) [Compound 6], the “Final model, −pIC50 Obsd” value is −0.70.

On to `CCCCCCCCC1(c2ccccc2)NC(=O)NC1=O` (stereo not drawn) [Compound 7], for which the “Final model, −pIC50 Obsd” value is listed as −0.70.

In the case of `CCN1C(=O)NC(=O)C1(C)c1ccccc1` (stereo not drawn) [Compound 8], the “Final model, −pIC50 Obsd” value is listed as −2.86.

As for `O=C1NC(=O)C2(CCc3ccccc32)N1` (stereo not drawn) [Compound 9], the “Final model, −pIC50 Obsd” value is given as −3.32.

As to `O=C1NC(=O)C2(CCCc3ccccc32)N1` (stereo not drawn) [Compound 10], the “Final model, −pIC50 Obsd” value is given as −2.93.

With `O=C1NC(=O)C2(CCCCc3ccccc32)N1` (stereo not drawn) [Compound 11], the “Final model, −pIC50 Obsd” value was −2.40.

Regarding `O=C1NC(=O)C2(CCCCCc3ccccc32)N1` (stereo not drawn) [Compound 12], the “Final model, −pIC50 Obsd” value is given as −2.40.

As to `CC12C(=O)NC(=O)N1CCc1ccccc12` (stereo not drawn) [Compound 13], the “Final model, −pIC50 Obsd” value is recorded as −2.40.

Regarding `CCCCC1(c2ccccc2C)NC(=O)NC1=O` (stereo not drawn) [Compound 14], the “Final model, −pIC50 Obsd” value was −2.35.

As for `CCCCC1(c2cccc(C)c2)NC(=O)NC1=O` (stereo not drawn) [Compound 15], the “Final model, −pIC50 Obsd” value is listed as −1.76.

As for `CCCCC1(c2ccc(C)cc2)NC(=O)NC1=O` (stereo not drawn) [Compound 16], the “Final model, −pIC50 Obsd” value is listed as −1.98.

Consider `O=C1NC(=O)C(c2ccccc2)(C2CCCCC2)N1` (stereo not drawn) [Compound 17], for which the “Final model, −pIC50 Obsd” value is listed as −1.76.

Turning to `O=C1C(c2ccccc2)N2CCCCN1C2=O` (stereo not drawn) [Compound 18], the “Final model, −pIC50 Obsd” value is −2.85.

For the compound `O=C1C(c2ccccc2)N2CCCCCN1C2=O` (stereo not drawn) [Compound 19], the “Final model, −pIC50 Obsd” value was −2.63.

As to `CCCCCCCC(O)(C(N)=O)c1ccccc1` (stereo not drawn) [Compound 20], the “Final model, −pIC50 Obsd” value was −0.95.

As to `CCOC(=O)c1ccc(N)cc1` [Compound 21, benzocaine], the “Final model, −pIC50 Obsd” value is given as −2.96.

As for `COC(=O)[C@H]1[C@@H](OC(=O)c2ccccc2)C[C@@H]2CC[C@H]1N2C` [Compound 24], the “Final model, −pIC50 Obsd” value is on record as −1.69.

Regarding `CC(CNC1CCCCC1)OC(=O)c1ccccc1` (stereo not drawn) [Compound 27], the “Final model, −pIC50 Obsd” value is given as −0.85.

For the compound `CCOc1ccc(C(=O)OCCN(CC)CC)cc1` [Compound 29], the “Final model, −pIC50 Obsd” value was −1.38.

As for `CC1CCCCN1CCCOC(=O)c1ccccc1` (stereo not drawn) [Compound 30, piperocaine], the “Final model, −pIC50 Obsd” value is −1.11.

For the compound `CCCNC(C)C(=O)Nc1ccccc1C` (stereo not drawn) [Compound 31], the “Final model, −pIC50 Obsd” value is −1.73.

As for `CCN(CC)CCOC(=O)c1ccc(N)cc1` [Compound 32], the “Final model, −pIC50 Obsd” value is given as −2.04.

As to `CCCOc1ccc(C(=O)OCCN(CC)CC)cc1N` [Compound 33], the “Final model, −pIC50 Obsd” value is given as −0.28.

Take `CCCOc1cc(N)ccc1C(=O)OCCN(CC)CC.Cl` [Compound 34]: the “Final model, −pIC50 Obsd” value is given as −1.38.

On to `O=C1NC(=O)C(c2ccccc2)(c2ccccc2)N1` [Compound 36, phenytoin], for which the “Final model, −pIC50 Obsd” value is reported as −1.60.

In general, IC50 refers to the concentration that gives 50% inhibition.

These data come from article PMC3031908 (Bioorganic & medicinal chemistry, 2008).
